Results on four compounds are retold here after US20030055107A1, “Forms of pharmaceutically active agents and method for manufacture thereof” (priority 2001, published 2003).

Each structure is given as a SMILES string. A value given as a limit tells only on which side of the number the result lay.

The conditions of data set [1]: cited from earlier work.
The nature of data set [2]: Dissolution of dried new form in water (observation). Type of data set: physicochemical. Particulars: dried form with potassium cation placed in water. From the text:
The new ibuprofen form of the present invention dissociates into ibuprofen in its free acid form.

A short description of data set [3]: Dynamic Vapor Sorption Moisture Balance, relative weight gain due to moisture pickup. Type of data set: physicochemical. The following applies: for critical humidity: cycled between 0% RH to 95% RH to 0% RH over 48 hours at 25° C. On the procedure: Samples were cycled between 0% RH to 95% RH to 0% RH over 48 hours at 25° C. […] At 50% humidity, the relative weight gain due to moisture pickup was about 25% while at 70% humidity the relative weight gain was about 35%. […] At 50% humidity the relative weight gain due to moisture pickup was about 1.4% and at 70% humidity the weight gain was bout 2%.

As for `CC(C)Cc1ccc(C(C)C(=O)O)cc1` (racemic) [Ibuprofen, ibuprofen], in data set [1] (water), the solubility in water was below 100 µg/mL.
Take `CC(C)Cc1ccc(C(C)C(=O)O)cc1.CC(C)Cc1ccc(C(C)C(=O)[O-])cc1.[K+]` (stereo not shown) [new ibuprofen form]: in data set [2], the “dissolution in water (in words)” value is “readily dissolves in water”. Besides, the “dissolution in water (in words)” value in data set [2] (listed as ibuprofen form of the present invention wherein the cation is potassium) is “immediate dissolution”. In data set [3] (0-95% RH cycle, 25° C.), the “hygroscopicity compared to the potassium salt of ibuprofen” value is “significantly less hygroscopic” and the “physical change of sample during humidity cycling” value is recorded as “No change in crystal appearance was observed”. For the same compound, the critical humidity entry in data set [3] was “about 30%”.
On to `CO[C@@H]1[C@@H](OC(N)=O)[C@@H](O)[C@H](Oc2ccc3c(O)c(NC(=O)c4ccc(O)c(CC=C(C)C)c4)c(=O)oc3c2C)OC1(C)C` [novobiocin], for which the “solubility of amorphous substance versus crystalline agent” value in data set [1] (amorphous vs crystalline, Mullins and Macek 1960) is listed as “ten times higher”.
For `CC(C)Cc1ccc(C(C)C(=O)O)cc1.[K]` (stereo not shown) [potassium ibuprofen], in data set [1] (background statement), the “solubility (in words)” value is “highly soluble”. Further, the “physical change of sample during humidity cycling” value in data set [3] (0-95% RH cycle, 25° C.) is “the sample dissolved and formed a gel”. Moreover, the critical humidity entry in data set [3] was “about 30%”.
